Measured values: ChEMBL document CHEMBL5505993, “Identification of a ferritinophagy inducer via sinomenine modification for the treatment of colorectal cancer” (Eur J Med Chem, 2024)
Calls of active or inactive are those of the source. The calls are words filed in the database; no cut-off is given here.

Assays:
[1] = Toxicity in BALB/c mouse xenografted with human HCT-116 cells assessed as change in body weight at 60 mg/kg,ip administrated daily for 14 days; type: organism-based; settings: in vivo, 336 h, time 14 day
HCT-116 [2] = experiment: Induction of ferroptosis in human HCT-116 cells assessed as increase in 4-HNE level at 20 uM by ELISA; type: functional, cell-based
HCT-116 [3] = experiment: Cytotoxicity against human HCT-116 cells assessed as inhibition of cell growth incubated for 48 hrs by CCK-8 assay; type: functional, cell-based; settings: HCT-116, 48 h
HCT-116 [4] = experiment: Cytotoxicity against human HCT-116 cells assessed as inhibition of cell growth incubated for 24 hrs by CCK-8 assay; type: functional, cell-based; settings: HCT-116, 24 h
HCT-116 [5] = experiment: Induction of ferroptosis in human HCT-116 cells assessed as increase in intracellular lipid ROS accumulation at 20 uM incubated for 12 hrs in presence of ferroptosis inhibitor, Ferrostatin-1 by C11 BODIPY probe based flow cytometry; type: functional, cell-based
HCT-116 [6] = experiment: Antitumor activity against human HCT-116 cells xenografted in BALB/c mouse assessed as increase in 4-HNE level in tumor at 60 mg/kg,ip administrated daily for 14 days by ELISA; type: functional, organism-based; settings: time 14.0 day

For `C=C(Cl)C(=O)NCCCCCCCCCCCC(=O)Oc1c(OC)ccc2c1[C@@]13CCN(C)[C@@H](C2)[C@H]1C=C(OC)C(=O)C3`, the Activity [1] was “Non-Toxic”, the Activity (HCT-116 [2]) was “Active” and the IC50 (HCT-116 [3]) was 5.87 µM. For the same compound, the IC50 (HCT-116 [4]) was 11.2 µM, the Activity (HCT-116 [5]) was “Active” and the Activity (HCT-116 [6]) was “Active”.
